Measured values taken from publication PMC10893053 (Pharmaceutics, 2024).
Converted amounts (≈) assume the structure as drawn. “And” between values parts separate entries of the source, which are not always exact repeats. Identical values can stand only once. Like-named read-outs stand apart in the source and are kept apart here. Blank lines part the entries; values can stand above or below the compound they belong to.

Tests used:
[1] = Equilibrium solubility of CBZ, shake-flask method, HPLC; format: physicochemical; details: phosphate buffer, aqueous buffer, thermodynamic from solid; pure buffer pH 6.8; 37.0±0.1 °C
Experimental: The experimental temperature of 37 °C corresponded to the standard temperature of a healthy human. […] The vials were continuously shaken in an air thermostat to achieve the equilibrium. After this, the suspensions were settled during no less than 6 h to avoid supersaturation [33]. […] The experimental results are presented as an average of at least three replicated experiments.
The samples of the solutions were analyzed via HPLC using the Shimadzu Prominence model LC-20 AD, equipped with a PDA detector and a C-18 column Luna® (150 mm × 4.6 mm i.d., 5 μm particle size, and 100 Å pore size) (Albert-Hahn-Str. 6-10, Duisburg, Germany). The column temperature was 40 °C. Eluent acetonitrile:water at a ratio of 40:60 v/v was used. An isocratic regime at a flow rate of 1 mL·min^−1 was applied. The injection volume was 20 μL.

[2] = CBZ/F127 association constant (Ka) from phase solubility diagram; format: physicochemical; details: buffer pH 6.8, 37 °C
Excerpt: To this end, in order to assess the concentration of F127 in the micellar form, the difference between the total F127 (CF127) concentration and the CMC was used.
The CMC value of F127 (Section 3.1) was used to calculate F127 micellar concentrations as the differences between the total CF127 and the CMC.

[3] = Stability constant of CBZ/SBE-β-CD complex (Kc) from phase solubility diagram; format: physicochemical; details: buffer pH 6.8, 37 °C
[4] = Micelle (F127)/buffer apparent partition coefficient of CBZ; format: physicochemical; details: buffer pH 6.8, 37 °C
Experimental: (§1) Additionally, for the sake of the reliable comparison of the partition within the micellar and cyclodextrin systems, the concentrations of the excipient (F127 or SBE-β-CD) on the X-axis were expressed in kg∙L^−1. From the results of the partition coefficients determinations, the thermodynamics of solubilization by F127 and SBE-β-CD was disclosed by the excess free Gibbs energy ( ΔGS37°C ) evaluation, using the equation:(12) ΔGS37°C=−RT·lnKexcipient/buf
(§2) In the case of cyclodextrins, the nonspecific interaction between the solute and the cavity of cyclodextrin takes place, and the solubilization process may be attributed to the partition of solutes from the aqueous buffer into the cyclodextrin cavity. In this work, the partition from the micellar pseudo phase (F127) to the aqueous buffer pH 6.8, as well as from SBE-β-CD to the buffer was studied using the plots of the linear dependences (Figure S4), plotted according to Equations (10) and (11). The calculations were conducted in two variants.

[5] = Cyclodextrin (SBE-β-CD)/buffer apparent partition coefficient of CBZ; format: physicochemical; details: buffer pH 6.8, 37 °C
Experimental: as §1, §2

[6] = logP, partition of CBZ from water to 1-octanol; format: physicochemical; details: 1-octanol/water, pH 7.4; after conversion from the molar units to the mass units
[7] = In vitro permeability, Franz diffusion cell, regenerated cellulose membrane; format: in vitro ADME; details: 37 °C; for C0free (free CBZ concentration in the donor solution, C0free=C0·ffree): RC membrane experiment; for Papp at 5 h: pH 6.8, RC membrane
Experimental: (§3) The apparent permeability coefficients were measured at 37 °C with the help of a vertical-type Franz diffusion cell (PermeGear, Inc., Hellertown, PA, USA). The experimental setup was the same as it was described in our previous study, where the excess amount of the investigated substance was placed in glass cups with ground-in lids. The required volume of buffer pH 6.8 without and with a predetermined concentration of the excipient (F127 or SBE-β-CD in the present study) was added, and the suspension was mixed overnight and filtered to obtain a clear solution. The concentration of this solution was determined and used for the further calculation of the permeability coefficient. […] The membrane was mounted between the donor and receptor chambers of the Franz cell. The effective surface area of the membrane was 0.785 cm^2. Each experiment lasted 5 h. The donor solution was permanently mixing with a magnetic stirrer at a constant rate. The aliquots of the receptor solution (0.5 mL) were withdrawn every 30 min and promptly replaced with the same volume of the fresh buffer.
(§4) The apparent permeability coefficients were taken as the average values of no less than three replicas. […]
(§5) The authors underlined that when different excipients, such as cyclodextrins or micelle-forming polymers, are used, it is necessary to obtain “true” permeability values by a correction of permeability coefficients for the free drug concentration. In this study, the free drug concentration in the presence of F127 and SBE-β-CD was assessed indirectly through the equilibrium solubility experiments at all the excipient concentrations (Table 2).

[8] = In vitro permeability, Franz diffusion cell, polydimethylsiloxane–polycarbonate membrane; format: in vitro ADME; details: 37 °C; for C0free (free CBZ concentration in the donor solution, C0free=C0·ffree): PDS membrane experiment; for Papp at 5 h: pH 6.8, PDS membrane
Experimental: as §3, §4, §5

[9] = design: method as in PMID 19403275; details: 1.33 mmol·L^−1 (1%) F127 solution; 37 °C; cited from earlier work
[10] = cited from earlier work
[11] = design: method as in PMID 21415539; details: water to 1-octanol; pH 7.4 of the aqueous phase; cited from earlier work
[12] = Viscosity of F127 and SBE-β-CD solutions, Vibro Viscometer; format: physicochemical; details: 37 °C
Experimental: The viscosity of F127 and SBE-β-CD solutions at concentrations used for the permeability experiments (1.0 w/v%, 2.0 w/v%, and 3.0 w/v%) was measured with the help of SV series Vibro Viscometer (A&D Company Ltd., Tokyo, Japan) with a high accuracy of 1% (standard deviation).
In turn, with SBE-β-CD in the donor solution, the Pappcalc values are somewhat lower with RC and higher with PDS membranes than the experimental Papp values. These findings allow the proposal of additional mechanisms that influence permeability, going beyond the model approach which primarily relied on solubility for quantitatively predicting permeability. The underestimation of the permeability through the PDS membrane with SBE-β-CD can probably be attributed to the specific interaction of anionic cyclodextrin with PDS, as it was underlined above. In addition, as it was reported in [57], decreased diffusivity can be attributed to the increased viscosity of the donor solution upon the acceleration of the excipient concentration. […] Fischer et al. proposed that just a change in the viscosity of the aqueous donor compartment might be the reason of the decreased permeability of carboxyfluorescein in the non-ionic surfactant poloxamer 188. To support the obtained results, the dynamic viscosity […] of the dissolution medium was measured at the experimental temperature of 37 °C and listed in Table S4. As expected, the viscosity was increased both with F127 and SBE-β-CD in solution.

[13] = expressed per mass of excipient
[14] = excipient concentration expressed in kg∙L^−1
[15] = excipient concentration expressed in molarity
[16] = F127 1.33 mmol·L^−1, buffer pH 6.8, read-out: Papp (apparent permeability coefficient)
[17] = F127 1.83 mmol·L^−1, buffer pH 6.8, read-out: Papp (apparent permeability coefficient)
[18] = F127 2.30 mmol·L^−1, buffer pH 6.8, read-out: Papp (apparent permeability coefficient)
[19] = SBE-β-CD 6.89 mmol·L^−1, buffer pH 6.8, read-out: Papp (apparent permeability coefficient)
[20] = SBE-β-CD 13.78 mmol·L^−1, buffer pH 6.8, read-out: Papp (apparent permeability coefficient)
[21] = SBE-β-CD 20.67 mmol·L^−1, buffer pH 6.8, read-out: Papp (apparent permeability coefficient)
[22] = pure buffer pH 6.8 (0 mmol·L^−1 excipient), read-out: Pabs (absolute permeability coefficient, Pabs=J/C0free)
[23] = pure buffer pH 6.8 (0 mmol·L^−1 excipient), read-out: Papp (apparent permeability coefficient)

- solubility thermodynamic [1]: 830 µM (≈ 196 µg/mL)
- CBZ/F127 micellar association constant (Ka) [2]: 2374.2 (±118.7) M^−1
- CBZ/F127 micellar association constant (Ka) [2, 13]: 65.5 (±3.27) L∙kg^−1
- Apparent stability constant of CBZ/SBE-β-CD complex (Kc) [3]: 395.9 (±15.8) M^−1 and 395.9 M^−1
- Apparent stability constant of CBZ/SBE-β-CD complex (Kc) [3, 13]: 247.5 (±5.23) L∙kg^−1
- Partition coefficient KF127/buf [4, 14]: 58.54 (±0.86)
- Partition coefficient KF127/buf [4, 15]: 737.63 (±10.90)
- Partition coefficient KSBE-β-CD/buf [5, 14]: 205.11 (±0.51)
- Partition coefficient KSBE-β-CD/buf [5, 15]: 297.67 (±0.75)
- logP [6]: 3.47
- C0free (free CBZ concentration in the donor solution, C0free=C0·ffree) ([7]; F127 1.33 mmol·L^−1): 473 µM
- C0free (free CBZ concentration in the donor solution, C0free=C0·ffree) ([7]; F127 1.83 mmol·L^−1): 377 µM
- C0free (free CBZ concentration in the donor solution, C0free=C0·ffree) ([7]; F127 2.30 mmol·L^−1): 473 µM
- C0free (free CBZ concentration in the donor solution, C0free=C0·ffree) ([7]; SBE-β-CD 6.89 mmol·L^−1): 446 µM
- C0free (free CBZ concentration in the donor solution, C0free=C0·ffree) ([7]; SBE-β-CD 13.78 mmol·L^−1): 388 µM
- C0free (free CBZ concentration in the donor solution, C0free=C0·ffree) ([7]; SBE-β-CD 20.67 mmol·L^−1): 559 µM
- Papp at 5 h [7, 16]: 32.2 ×10⁻⁶ cm/s
- Papp at 5 h [7, 17]: 26.6 ×10⁻⁶ cm/s
- Papp at 5 h [7, 18]: 20.3 ×10⁻⁶ cm/s
- Papp at 5 h [7, 19]: 20.5 ×10⁻⁶ cm/s
- Papp at 5 h [7, 20]: 13.4 ×10⁻⁶ cm/s
- Papp at 5 h [7, 21]: 12.4 ×10⁻⁶ cm/s
- Papp at 5 h [7, 22]: 55.5 ×10⁻⁶ cm/s
- Papp at 5 h [7, 23]: 55.5 ×10⁻⁶ cm/s
- C0free (free CBZ concentration in the donor solution, C0free=C0·ffree) ([8]; F127 1.33 mmol·L^−1): 464 µM
- C0free (free CBZ concentration in the donor solution, C0free=C0·ffree) ([8]; F127 1.83 mmol·L^−1): 378 µM
- C0free (free CBZ concentration in the donor solution, C0free=C0·ffree) ([8]; F127 2.30 mmol·L^−1): 312 µM
- C0free (free CBZ concentration in the donor solution, C0free=C0·ffree) ([8]; SBE-β-CD 6.89 mmol·L^−1): 440 µM
- C0free (free CBZ concentration in the donor solution, C0free=C0·ffree) ([8]; SBE-β-CD 13.78 mmol·L^−1): 514 µM
- C0free (free CBZ concentration in the donor solution, C0free=C0·ffree) ([8]; SBE-β-CD 20.67 mmol·L^−1): 500 µM
- Papp at 5 h [8, 16]: 0.286 ×10⁻⁶ cm/s
- Papp at 5 h [8, 17]: 0.253 ×10⁻⁶ cm/s
- Papp at 5 h [8, 18]: 0.214 ×10⁻⁶ cm/s
- Papp at 5 h [8, 19]: 0.127 ×10⁻⁶ cm/s
- Papp at 5 h [8, 20]: 0.0796 ×10⁻⁶ cm/s
- Papp at 5 h [8, 21]: 0.0565 ×10⁻⁶ cm/s
- Papp at 5 h [8, 22]: 0.567 ×10⁻⁶ cm/s
- Papp at 5 h [8, 23]: 0.567 ×10⁻⁶ cm/s
Compound: NC(=O)N1c2ccccc2C=Cc2ccccc21 [CBZ, carbamazepine]
- Solubility of CBZ [9]: 1430 µM
- Stability constant of CBZ with SBE-β-CD ([10]; unbuffered double distilled water, 30 °C, ref 48 Jain et al.): 498.04 M⁻¹
- Stability constant of CBZ with SBE-β-CD ([10]; undefined pH and temperature, ref 49 Smith et al.): 1035 M⁻¹
- P (partition coefficient water/1-octanol) [11]: 380.19

- Viscosity ([12]; SBE-β-CD 6.89 mmol·L-1 donor solution): 0.72 mPa·s
- Viscosity ([12]; SBE-β-CD 13.78 mmol·L-1 donor solution): 0.75 mPa·s
- Viscosity ([12]; SBE-β-CD 20.67 mmol·L-1 donor solution): 0.8 mPa·s
Compound: sulfobutylether-β-cyclodextrin [SBE-β-CD]
